Measurements published in PubChem BioAssay (NCI).
“And” between values parts separate entries of the source, which are not always exact repeats. Identical values can stand only once.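 Interpolation was linear, between the two tested concentrations surrounding the appropriate level; five concentrations were tested over 48 hours in 96-well plates. Abbreviation: GI50, concentration required for 50% inhibition of growth. TGI marks complete inhibition of growth.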

How the values were obtained:
Experiment in all cases: NCI anticancer screen, dose series, 48 h
A549 NSCLC = system: A549 NSCLC
CAKI-1 renal = system: CAKI-1 renal
DU-145 prostate = system: DU-145 prostate
HT29 colon = system: HT29 colon
NCI-H23 lung = system: NCI-H23 lung
NCI/ADR-RES ovarian = system: NCI/ADR-RES ovarian
SF-268 CNS = system: SF-268 CNS
SNB-75 CNS = system: SNB-75 CNS
IGROV1 ovarian = system: IGROV1 ovarian
SF-295 CNS = system: SF-295 CNS

| Compound | GI50 (A549 NSCLC) | TGI (A549 NSCLC) | GI50 (CAKI-1 renal) | TGI (CAKI-1 renal) | GI50 (DU-145 prostate) | TGI (DU-145 prostate) | GI50 (HT29 colon) | TGI (HT29 colon) | GI50 (NCI-H23 lung) [µM] | TGI (NCI-H23 lung) [µM] | GI50 (NCI/ADR-RES ovarian) | TGI (NCI/ADR-RES ovarian) | GI50 (SF-268 CNS) | TGI (SF-268 CNS) | GI50 (SNB-75 CNS) | TGI (SNB-75 CNS) | GI50 (IGROV1 ovarian) | TGI (IGROV1 ovarian) | GI50 (SF-295 CNS) | TGI (SF-295 CNS) |
| --- | --- | --- | --- | --- | --- | --- | --- | --- | --- | --- | --- | --- | --- | --- | --- | --- | --- | --- | --- | --- |
| O=C(Nc1ccc(Nc2ccncc2)cc1)c1ccc(Nc2ccnc3ccc([N+](=O)[O-])cc23)cc1 | > 100 µM | > 100 µM | > 100 µM | > 100 µM | > 100 µM | > 100 µM | > 100 µM | > 100 µM | > 100 | > 100 | > 100 µM | > 100 µM | 29.9 µM | > 100 µM | > 100 µM | > 100 µM |  |  |  |  |
| CCN(CC)CCCC(C)Nc1cnc(C(=O)Nc2cc(F)cc3cccnc23)cn1 (stereo not drawn) | 8.14 µM and 2.41 µM | 22.3 µM and 6.28 µM | 2.89 µM and 2.05 µM | 15.4 µM and 5.71 µM | 10.5 µM and 1.48 µM | 23.1 µM and 2.84 µM | 2.96 µM and 0.668 µM | 10.8 µM and 4.76 µM |  |  | 7.27 µM and 2.6 µM | 21.6 µM and 11.2 µM | 5.32 µM and 1.56 µM | 20.9 µM and 3.25 µM | 4.49 µM and 1.45 µM | 20.1 µM and 2.79 µM | 3.03 µM and 0.379 µM | 12 µM and 1.4 µM | 12.7 µM and 1.81 µM | 26.4 µM and 3.33 µM |
| Cc1cc2c(C(N)=O)cccc2n1-c1nc2c(c(NCc3ccccc3)n1)CCCN2 | 0.22 µM | 0.543 µM | 0.151 µM | 0.333 µM | 0.29 µM | 0.783 µM | 0.215 µM | 0.485 µM |  |  | 0.307 µM | 1.74 µM | 0.213 µM | 0.487 µM | 0.153 µM | 0.342 µM | 0.194 µM | 0.439 µM | 0.174 µM | 0.352 µM |
| Clc1cc(Cl)cc(N2N=C(c3cccc(Nc4ccncc4)c3)CC2c2ccc(Br)cc2)c1 (stereo not drawn) |  |  | 1.54 µM | 2.91 µM | 1.84 µM | 3.41 µM | 1.87 µM | 3.66 µM | 1.79 | 3.41 | 1.91 µM | 3.86 µM | 1.76 µM | 3.58 µM | 1.42 µM | 2.98 µM | 1.74 µM | 3.3 µM | 1.79 µM | 3.2 µM |
| C=C(CN1CCN(c2ccccc2F)CC1)c1ccc(C(=O)Nc2ccccc2N)cc1 | 3.52 µM | 35.4 µM | 1.81 µM | 7.18 µM | 1.6 µM | 6.06 µM | 1.19 µM | 4.37 µM | 1.87 | 8.88 |  |  | 2.36 µM | > 100 µM | 2.27 µM | 8.14 µM | 0.571 µM | 4.96 µM | 2.38 µM | 18 µM |
| Cc1nn2c(/C=C3/C(=O)Nc4ccc(Cl)cc43)c(-c3ccccc3)nc2s1 | 2.25 µM | 5.51 µM | 1.92 µM | 6.3 µM | 2.69 µM | 7.2 µM | 4.03 µM | 13.9 µM | 4.1 | > 100 |  |  | 2.06 µM | 5.19 µM | 1.19 µM | 2.69 µM | 1.51 µM | 10.2 µM | 2.02 µM | 5.76 µM |
| COC[C@H]1OC(=O)c2coc3c2[C@@]1(C)C1=C(C3=O)[C@@H]2CCC(=O)[C@@]2(C)C[C@H]1OC(C)=O |  | > 100 µM |  |  |  | > 100 µM |  | 97.8 µM |  | > 100 |  | > 100 µM |  | > 100 µM |  |  |  | 19.3 µM |  | 63.1 µM |
| CC(=O)Oc1cccc2c1C(=O)C(Br)(Br)CCC2 |  | 40 µM |  | 10.7 µM |  | 26.6 µM |  | 14 µM |  | 18.7 |  |  |  | 42.7 µM |  | 16.5 µM |  | 30.6 µM |  | 31.3 µM |
| Cn1c2ccc([N+](=O)[O-])cc2c(=O)c2c(O)cc(O)cc21 |  | > 100 µM |  | > 100 µM |  | > 100 µM |  |  |  |  |  | 55 µM |  | 80.2 µM |  | 34.7 µM |  | 45.3 µM |  | 33.8 µM |
| CN(C)CCNC(=O)c1cc([N+](=O)[O-])ccn1 |  | > 100 µM |  | > 100 µM |  | > 100 µM |  | 48.1 µM |  | 47.1 |  |  |  | 70.7 µM |  | > 100 µM |  | > 100 µM |  | 93.9 µM |
| Cc1ccc(C2=Nc3ccccc3NC(=O)C2)cc1 |  | > 100 µM |  | > 100 µM |  |  |  | > 100 µM |  | > 100 |  |  |  | > 100 µM |  | > 100 µM |  | > 100 µM |  | > 100 µM |
| O=Cc1[nH]c2ccccc2c1Br |  | > 100 µM |  | > 100 µM |  |  |  | 58.6 µM |  | 87.8 |  |  |  | 69.8 µM |  | 52.6 µM |  | 70.2 µM |  | > 100 µM |
| c1ccc2[nH]c(-c3ccc(OCCCCCOc4ccc(-c5nc6ccccc6[nH]5)cc4)cc3)nc2c1 | 2.53 µM | > 47.4 µM | 1.97 µM | 6.8 µM | 0.639 µM | 3.41 µM | 0.629 µM | 2.75 µM | 8.89 | 26 | 2.28 µM | 7.2 µM |  |  | 1.91 µM | 3.69 µM |  |  | 5.61 µM | 13.1 µM |
| Cc1nc(Nc2ccc(F)c(Cl)c2)sc1C(=O)O | 1.68 µM | 3.81 µM | 1.9 µM | 7.34 µM | 2.22 µM | 7.84 µM | 1.67 µM | 3.44 µM |  |  | 1.78 µM | 4.7 µM | 1.76 µM | 4.36 µM | 1.18 µM | 4.31 µM | 1.63 µM | 5.03 µM | 1.49 µM | 3.15 µM |
| CN(C)c1ccc(/C=C2\N=C(c3ccc(N)cc3)OC2=O)cc1 |  | > 100 µM |  | > 100 µM |  |  |  | > 100 µM |  | > 100 |  |  |  | > 100 µM |  | > 100 µM |  | > 100 µM |  | > 100 µM |
| C=CCN=C1N=C(CC(=O)OCC)CS1 |  | > 100 µM |  | > 100 µM |  |  |  | > 100 µM |  | > 100 |  |  |  | > 100 µM |  | > 100 µM |  | > 100 µM |  | > 100 µM |
| Cc1c(C(=O)CC(=O)C(=O)Nc2cccc(C(F)(F)F)c2)[n+](=O)c2ccccc2n1[O-] |  | 32.1 µM |  | 21 µM |  |  |  | 17.8 µM |  | 40.5 |  |  |  | 14.4 µM |  | 7.86 µM |  | 9.34 µM |  | 23.4 µM |
| CN(C)CCCn1c2c3ccccc3ccc2c2oc(=O)c3ccccc3c21 |  | 11 µM |  | 27.6 µM |  |  |  | 14.7 µM |  | 13.1 |  | > 26.9 µM |  | 13.4 µM |  | 12 µM |  | 23.5 µM |  | 7.17 µM |
